From patent publication US7297704B2, “Cycloalkyfused indole, benzothiophene, benzofuran and idene derivatives” (Wyeth, priority 2005, dated 2007)
Where a name gives a salt, the structure may show the parent alone.

Assays:
serotonin transporter = target: T1, serotonin transporter (Rattus norvegicus, UniProt P31652); test: 3H-paroxetine binding to the serotonin transporter, rat frontal cortical membranes; conditions: values printed in parentheses, 3H-paroxetine 0.1 nM, read-out: rb-5-HH-T, (IC50)
T1 construct: frontal cortical membranes prepared from male S.D. rats; from tissue; host or cells: rat frontal cortex membranes (male Sprague-Dawley)
Procedure: A protocol similar to that used by Cheetham et al. (Neuropharmacol. 32:737, 1993) was used to determine the affinity of compounds for the serotonin transporter. Briefly, frontal cortical membranes prepared from male S.D. rats were incubated with ^3H-paroxetine (0.1 nM) for 60 min at 25° C. All tubes also contained either vehicle, test compound (one to eight concentrations), or a saturating concentration of fluoxetine (10 μM) to define […]. All reactions are terminated by the addition of ice cold Tris buffer followed by rapid filtration using a Tom Tech filtration device to separate bound from free ^3H-paroxetine. Bound radioactivity was quantitated using a Wallac 1205 Beta Plate® counter. Nonlinear regression analysis was used to determine IC50 values which were converted to Ki values using the method of Cheng and Prusoff (Biochem. Pharmacol. 22: 3099, 1973); […].

Human 5-HT1A Receptor [1] = target: T2, Human 5-HT1A Receptor (Homo sapiens, UniProt P08908); test: 8-OH-DPAT binding, human 5-HT1A receptor cell line; conditions: stably transfected CHO cells, 8-OH-DPAT ligand 1.5 nM; read-out: h5-HT1A Affinity, Ki
T2 construct: expressed in transfected cells; host or cells: CHO cells
T2 sequence (P08908 1-422): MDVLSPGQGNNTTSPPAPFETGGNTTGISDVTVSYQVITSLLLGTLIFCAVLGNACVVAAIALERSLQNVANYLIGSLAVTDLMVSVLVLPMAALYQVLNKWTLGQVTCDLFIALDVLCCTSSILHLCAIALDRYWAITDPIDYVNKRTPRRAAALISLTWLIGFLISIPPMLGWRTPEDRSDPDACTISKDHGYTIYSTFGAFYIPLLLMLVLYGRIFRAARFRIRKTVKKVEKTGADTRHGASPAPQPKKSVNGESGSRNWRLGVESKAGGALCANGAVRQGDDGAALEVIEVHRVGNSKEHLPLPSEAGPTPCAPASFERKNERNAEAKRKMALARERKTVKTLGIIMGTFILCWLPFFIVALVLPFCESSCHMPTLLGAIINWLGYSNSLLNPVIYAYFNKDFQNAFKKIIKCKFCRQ
Procedure: Stably transfected CHO cells were grown in DMEM containing 10% heat inactivated FBS and non-essential amino acids. Cells were scraped off the plate, transferred to centrifuge tubes, and washed twice by centrifugation (2000 rpm for 10 min., 4° C.) in buffer (50 mM Tris, pH 7.5). The resulting pellets were aliquoted and placed at −80° C. On day of assay, the cells were thawed on ice, and resuspended in buffer. The binding assay was performed in a 96 well microtiter plate in a total volume of […]. Non-specific binding was determined in the presence of […] 5HT; final ligand concentration was 1.5 nM. Following a 30 min. incubation at room temperature, the reaction was terminated by the addition of ice cold buffer and rapid filtration through a GF/B filter presoaked for 30 min. in 0.5% PEI. Compounds were initially tested in a single point assay to determine percent inhibition at […]. Subsequently, Ki values were determined for compounds defined to be active. Percent inhibition Ki was determined by RFComp (Lundon Software), with Serotonin 8-OH-DPAT as the reference compounds.

Human 5-HT1A Receptor [2] = target: T2, Human 5-HT1A Receptor; test: cAMP RIA in human 5-HT1A receptor cell line; assay type: cell-based; conditions: superscript b; reversal of agonist activity, CHO cells; read-out: c-AMP, (IC50)^b
Procedure: Stably transfected CHO cells were grown in DMEM containing 10% heat inactivated FBS and non-essential amino acids. The cells were plated at a density of 10^6 cells per well in a 96 well plate and incubated for 2 days in a CO2 incubator. On the second day, the media was replaced with 0.1 ml Krebs and incubated 15 minutes at 37° C. The media was then replaced with Krebs buffer containing 500 uM IBMX and incubated 5 minutes at 37° C. Wells were treated with forskolin (1 uM final conc) followed immediately by test compound (0.1 and 1 uM for initial screen) and incubated for an additional 10 min at 37° C. Reaction was terminated by removal of the media and addition of 0.5 ml ice cold assay buffer (supplied in RIA kit). Plates are stored at −20° C. prior to assessment of cAMP formation by RIA. Compounds shown to have no agonist activities were further analyzed for ability to reverse agonist activity. In separate experiments, 6 concentrations of antagonist were preincubated for 20 min prior to the addition of agonist and forskolin. Cells were harvested as described. The cAMP kit is supplied by Amersham and the RIA is performed as per kit instructions. In the initial screen, percent inhibition of forskolin stimulated cAMP was measured. In the secondary screen, IC50 of reversal of agonist activity was measured. Calculations of IC50 were performed by GraphPad Prism. Serotonin, BMY 7378, Buspirone, and 8-OH-DPAT were used as reference compounds.

T1 sequence (P31652 whole entry): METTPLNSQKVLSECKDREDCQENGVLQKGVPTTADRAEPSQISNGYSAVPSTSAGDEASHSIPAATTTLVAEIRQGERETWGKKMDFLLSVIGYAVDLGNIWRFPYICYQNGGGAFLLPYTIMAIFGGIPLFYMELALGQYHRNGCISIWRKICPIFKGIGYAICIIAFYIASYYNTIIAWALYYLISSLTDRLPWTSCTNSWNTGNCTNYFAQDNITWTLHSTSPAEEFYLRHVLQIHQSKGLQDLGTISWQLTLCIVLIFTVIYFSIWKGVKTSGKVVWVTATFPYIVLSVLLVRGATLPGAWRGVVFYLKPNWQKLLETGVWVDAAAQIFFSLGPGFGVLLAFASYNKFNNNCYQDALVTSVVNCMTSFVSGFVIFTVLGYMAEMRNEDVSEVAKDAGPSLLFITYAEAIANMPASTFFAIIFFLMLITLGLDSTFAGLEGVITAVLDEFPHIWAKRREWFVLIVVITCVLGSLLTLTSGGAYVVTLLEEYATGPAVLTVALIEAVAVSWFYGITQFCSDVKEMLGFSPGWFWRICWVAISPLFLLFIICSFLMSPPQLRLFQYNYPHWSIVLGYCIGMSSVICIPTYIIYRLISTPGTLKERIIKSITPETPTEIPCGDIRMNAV

SMILES | melting point | IC50 (serotonin transporter) | Ki (Human 5-HT1A Receptor [1]) | IC50 (Human 5-HT1A Receptor [2])
Cc1ccc2c3c(ccc2n1)OCC(CN(CC1CCc2c(c4cc(F)ccc4n2C)C1)C(C)C)O3 (as salt: hydrochloride) (hydrate or solvate) [Example 65, N-[(6-Fluoro-9-methyl-2,3,4,9-tetrahydro-1H-carbazol-3-yl)methyl]-N-([(2S)-8-methyl-2,3-dihydro[1,4]dioxino[2,3-f]quinolin-2-yl]methylpropan-2-aminemonohydrochloride monohydrate] | 201 to 222 °C | – | – | –
Cc1ccc2c3c(ccc2n1)OC[C@H](CNC[C@@H]1CCc2[nH]c4ccc(F)cc4c2C1)O3 (as salt: hydrochloride) [Example 5, N-{[(3R)-6-fluoro-2,3,4,9-tetrahydro-1H-carbazol-3-yl]methyl}-N-{[(2S)-8-methyl-2,3-dihydro[1,4]dioxino[2,3-f]quinolin-2-yl]methyl}amine] | 229 to 236 °C | – | – | –
Cc1ccc2c3c(ccc2n1)OC[C@H](CNC[C@H]1CCc2c(c4cc(F)ccc4n2C)C1)O3 (as salt: hydrochloride) [Example 7] | 220 to 226 °C | – | – | –
Cc1ccc2c3c(ccc2n1)OC[C@H](CNC[C@@H]1CCc2c(c4cc(F)ccc4n2C)C1)O3 (as salt: hydrochloride) [Example 8, N-{[(3R)-6-fluoro-9-methyl-2,3,4,9-tetrahydro-1H-carbazol-3-yl]methyl}-N-{[(2S)-8-methyl-2,3-dihydro[1,4]dioxino[2,3-f]quinolin-2-yl]methyl}amine] | 242 to 260 °C | – | – | –
CCN(CC1CCc2[nH]c3ccc(F)cc3c2C1)C[C@H]1COc2ccc3nc(C)ccc3c2O1.Cl.Cl.O.O (stereo partly drawn) (hydrate or solvate) [Example 50, N-[(6-Fluoro-2,3,4,9-tetrahydro-1H-carbazol-3-yl)methyl]-N-{[(2S)-8-methyl-2,3-dihydro[1,4]dioxino[2,3-f]quinolin-2-yl]methyl}ethanamine dihydrochloride dihydrate] | 234 to 249 °C | – | – | –
CCCN(CC1CCc2[nH]c3ccc(F)cc3c2C1)C[C@H]1COc2ccc3nc(C)ccc3c2O1.Cl.Cl.O.O (stereo partly drawn) (hydrate or solvate) [Example 51, N-[(6-Fluoro-2,3,4,9-tetrahydro-1H-carbazol-3-yl)methyl]-N-{[(2S)-8-methyl-2,3-dihydro[1,4]dioxino[2,3-f]quinolin-2-yl]methyl}propan-1-amine dihydrochloride dihydrate] | 187 to 201 °C | – | – | –
Cc1ccc2c3c(ccc2n1)OC[C@H](CN(CC1CC1)CC1CCc2[nH]c4ccc(F)cc4c2C1)O3.Cl.Cl.O.O (stereo partly drawn) (hydrate or solvate) [Example 52, (Cyclopropylmethyl)[(6-fluoro-2,3,4,9-tetrahydro-1H-carbazol-3-yl)methyl]{[(2S)-8-methyl-2,3-dihydro[1,4]dioxino[2,3-f]quinolin-2-yl]methyl}amine dihydrochloride dihydrate] | 215 to 230 °C | – | – | –
Cc1ccc2c3c(ccc2n1)OC[C@H](CN(CC1CCc2[nH]c4ccc(F)cc4c2C1)C1CCC1)O3.Cl.Cl.O.O (stereo partly drawn) (hydrate or solvate) [Example 53, N-[(6-Fluoro-2,3,4,9-tetrahydro-1H-carbazol-3-yl)methyl]-N-{[(2S)-8-methyl-2,3-dihydro[1,4]dioxino[2,3-f]quinolin-2-yl]methyl}cyclobutanamine dihydrochloride dihydrate] | 220 to 235 °C | – | – | –
CCCN(C[C@@H]1CCc2[nH]c3ccc(F)cc3c2C1)C[C@H]1COc2ccc3nc(C)ccc3c2O1.Cl.Cl.O.O (hydrate or solvate) [Example 54, N-{[(3R)-6-Fluoro-2,3,4,9-tetrahydro-1H-carbazol-3-yl]methyl}-N-{[(2S)-8-methyl-2,3-dihydro[1,4]dioxino[2,3-f]quinolin-2-yl]methyl}propan-1-amine dihydrochloride dihydrate] | 225 to 240 °C | – | – | –
Cc1ccc2c3c(ccc2n1)OC[C@H](CN(CC1CC1)C[C@@H]1CCc2[nH]c4ccc(F)cc4c2C1)O3.Cl.Cl.O.O (hydrate or solvate) [Example 55, (Cyclopropylmethyl){[(3R)-6-fluoro-2,3,4,9-tetrahydro-1H-carbazol-3-yl]methyl}{[(2S)-8-methyl-2,3-dihydro[1,4]dioxino[2,3-f]quinolin-2-yl]methyl}amine dihydrochloride dihydrate] | 210 to 225 °C | – | – | –
Cc1ccc2c3c(ccc2n1)OC[C@H](CN(C[C@@H]1CCc2[nH]c4ccc(F)cc4c2C1)C1CCC1)O3.Cl.Cl.O.O (hydrate or solvate) [Example 56, N-{[(3R)-6-Fluoro-2,3,4,9-tetrahydro-1H-carbazol-3-yl]methyl}-N-{[(2S)-8-methyl-2,3-dihydro[1,4]dioxino[2,3-f]quinolin-2-yl]methyl}cyclobutanamine dihydrochloride dihydrate] | 215 to 230 °C | – | – | –
Cc1ccc2c3c(ccc2n1)OC[C@H](CN(C[C@@H]1CCc2[nH]c4ccc(F)cc4c2C1)C(C)C)O3.Cl.O (hydrate or solvate) [Example 57, N-{[(3R)-6-Fluoro-2,3,4,9-tetrahydro-1H-carbazol-3-yl]methyl}-N-{[(2S)-8-methyl-2,3-dihydro[1,4]dioxino[2,3-f]quinolin-2-yl]methyl}propan-2-amine monohydrochloride monohydrate] | 230 to 243 °C | – | – | –
Cc1ccc2c3c(ccc2n1)OC[C@H](CNC[C@H]1CCc2[nH]c4ccc(F)cc4c2C1)O3 [Example 3, S,S-(6-Fluoro-2,3,4,9-tetrahydro-1H-carbazol-3-ylmethyl)-(8-methyl-2,3-dihydro-[1,4]dioxino[2,3-f]quinolin-2-ylmethyl)-amine] | – | 6.61 nM | 1.26 nM | 79 nM
Cc1ccc2c3c(ccc2n1)OC[C@H](CNC[C@@H]1CCc2[nH]c4ccc(F)cc4c2C1)O3 [Example 5, N-{[(3R)-6-fluoro-2,3,4,9-tetrahydro-1H-carbazol-3-yl]methyl}-N-{[(2S)-8-methyl-2,3-dihydro[1,4]dioxino[2,3-f]quinolin-2-yl]methyl}amine] | – | 2.56 nM | 2.03 nM | 144 nM
Cc1ccc2c3c(ccc2n1)OC[C@H](CNC[C@H]1CCc2c(c4cc(F)ccc4n2C)C1)O3 [Example 7] | – | 7.74 nM | 0.34 nM | 78.5 nM
Cc1ccc2c3c(ccc2n1)OC[C@H](CNC[C@@H]1CCc2c(c4cc(F)ccc4n2C)C1)O3 [Example 8, N-{[(3R)-6-fluoro-9-methyl-2,3,4,9-tetrahydro-1H-carbazol-3-yl]methyl}-N-{[(2S)-8-methyl-2,3-dihydro[1,4]dioxino[2,3-f]quinolin-2-yl]methyl}amine] | – | 3.1 nM | 2.5 nM | 39.4 nM
